We go through eight compounds from PubChem BioAssay (NCI).

Holding throughout (assay): growth of human tumour cells (NCI), 48 h
Assay [1] deals with A498 renal.
For assay [2], the system named is A549 NSCLC.
The test system of assay [3] is HL-60(TB) leukemia.
Assay [4] has as its system HS 578T breast.
Assay [5] has as its system IGROV1 ovarian.
The subject of assay [6] is LOX IMVI melanoma.
Assay [7] deals with MDA-MB-435.
The test system of assay [8] is MDA-N.
Assay [9] has as its system MOLT-4 leukemia.
In assay [10] the test system is NCI-H460 lung.
The subject of assay [11] is NCI/ADR-RES ovarian.
Assay [12] concerns OVCAR-4 ovarian.
Assay [13] relates to RPMI-8226 leukemia.
For assay [14], the system named is SF-539 CNS.
In assay [15] the test system is SK-MEL-5 melanoma.
For assay [16], the system named is SNB-19 CNS.
The test system of assay [17] is TK-10 renal.
In assay [18] the test system is U251 CNS.
For assay [19], the system named is UACC-257 melanoma.
The test system of assay [20] is MALME-3M melanoma.

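96-well plates; 48 h exposure; 5 concentrations. Endpoints by linear interpolation between flanking doses. Not reached: highest tested concentration assigned. TGI is the concentration that stops growth completely.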

`CCCCN(C)C(=O)C1=C(C)NC(C)=C(C(=O)N(C)CCCC)C1`: the TGI in assay [1], in [2], in assay [3], in [4], in assay [5] and in assay [6] was more than 100 µM throughout. The TGI in [7], in assay [8], in assay [9], in assay [10], in assay [11] and in assay [12] was more than 100 µM each time. The TGI in assay [13], in [14], in [15], in assay [16], in assay [17] and in assay [18] was more than 100 µM throughout. The TGI in assay [19] was more than 100 µM.
Turning to `c1ccc2c(-c3csc(-c4c[nH]c5ccccc45)n3)c[nH]c2c1`, the TGI is more than 100 µM in assay [1]; more than 100 µM in assay [2]; 47.6 µM in [3]; more than 100 µM in assay [4]; more than 100 µM in [5]; more than 100 µM in [6]. Further, the TGI is more than 100 µM in [20]; more than 100 µM in [7]; more than 100 µM in assay [8]; 41.4 µM in [9]; more than 100 µM in assay [10]; more than 100 µM in assay [11]. The TGI in assay [12], in assay [14], in [16], in [17], in assay [18] and in assay [19] was more than 100 µM throughout.
For the compound `c1cncc(CSc2ncnc3nc[nH]c23)c1`, the TGI in assay [1], in [2], in [3], in assay [4], in assay [5] and in assay [6] was more than 100 µM in each case. For the same compound, the TGI in [20], in assay [7], in assay [8], in [9], in assay [10] and in assay [11] was more than 100 µM each time. Further, the TGI in assay [12], in [15], in [16], in assay [17], in [18] and in assay [19] was more than 100 µM in each case.
For `C=C(C)CCC1CC=[N+]([O-])OC1C(C)(C)C` (stereo not given), the TGI is more than 100 µM in [1]; 51.4 µM in assay [2]; 27.2 µM in assay [3]; more than 100 µM in [4]; more than 100 µM in assay [5]; 40.3 µM in assay [6]. In addition, the TGI is 40.7 µM in [7]; more than 100 µM in assay [8]; more than 100 µM in [9]; more than 100 µM in assay [10]; 67.3 µM in assay [11]; more than 100 µM in assay [13]. For the same compound, the TGI in assay [14], in assay [15], in [17], in assay [18] and in assay [19] was more than 100 µM throughout.
As to `CN1CCC/C1=C1/C(=O)N(c2ccccc2)N=C1c1ccc[nH]1`, the TGI in [1], in assay [2], in assay [3], in [4], in assay [5] and in assay [6] was more than 100 µM in each case. Also, the TGI in assay [20], in assay [7], in [8], in assay [9], in assay [10] and in assay [11] was more than 100 µM throughout. Moreover, the TGI in assay [12], in assay [13], in assay [15], in [16], in [17] and in [18] was more than 100 µM in each case. Besides, the TGI in [19] was more than 100 µM.
As for `CC(=O)O[C@@H]1[C@H]2[C@@H](OC(=O)c3ccccc3)[C@@H](C)C[C@]2(O)[C@H](OC(C)=O)[C@@]2(C)[C@@H]3C[C@@](C)(OC(C)=O)C[C@@H](OC(C)=O)[C@@]3(OC(C)=O)C[C@@]12C`, the TGI in assay [1], in [3], in assay [4], in assay [5], in [6] and in assay [7] was more than 10 µM throughout. Moreover, the TGI in assay [8], in assay [9], in [10], in assay [11], in [12] and in assay [14] was more than 10 µM each time. Also, the TGI in assay [15], in assay [16], in assay [17], in assay [18] and in [19] was more than 10 µM each time.
Regarding `O=C(Nc1ccc2[nH]c(C(=O)N3CC(CCl)c4ccc([N+](=O)[O-])cc43)cc2c1)c1cc2ccccc2o1` (stereo not given), the TGI in [1], in [2], in assay [3], in assay [4], in assay [5] and in assay [6] was more than 1100 µM in each case. Further, the TGI in assay [20], in assay [7], in [8], in [9], in [10] and in [11] was more than 1100 µM in each case. The TGI in [12], in [13], in [14], in assay [15], in assay [16] and in assay [18] was more than 1100 µM throughout. In addition, the TGI in assay [19] was more than 1100 µM.
In the case of `CSc1nc2c3ccccc3ccn2c1C(=O)N/N=C/c1ccccc1`, the TGI in assay [1] is more than 100 µM; in assay [2], more than 100 µM; in [3] it was more than 100 µM; in assay [4], more than 71.6 µM; in assay [5], more than 100 µM; in [6], more than 100 µM. The TGI in [20] is more than 95.1 µM; in assay [7], more than 100 µM; in [8] it was more than 100 µM; in assay [9], more than 100 µM; in [10], more than 73.7 µM; in assay [11], more than 71.9 µM. In addition, the TGI is 39.1 µM in assay [12]; more than 100 µM in [13]; 9.53 µM in [14]; more than 100 µM in assay [15]; 37.7 µM in [18]; more than 100 µM in [19].
